Here are results for 11 molecules from patent US12005120B2, “Galnac conjugated modified oligonucleotides as miR-122 inhibitor having HCV antiviral activity with reduced hyperbilirubinemia side-effect” (Regulus Therapeutics Inc., priority 2018, dated 2024).

For one series, the system named is HCV GT1b replicon. The experiment in a line: HCV replicon assay (Huh7 cells, luciferase reporter). It is filed as cell-based, HCV genotype 1b. The text has this: An HCV replicon assay was used to determine the ability of anti-miR-122 compounds to inhibit the replication of HCV genotype 1b. In this assay, test compounds are introduced into Huh7 cells stably transfected with a HCV GT1b replicon containing a luciferase reporter gene. The luciferase reporter is used as an indirect measure of HCV replication. While a GalNAc-conjugated compound is expected to be preferable for treatment of HCV infection, due to the enhanced delivery to hepatocytes, some unconjugated compounds were tested.
Selected compounds were tested at nine concentrations ranging from 0.015 uM to 100 uM. GS-7977 (sofosbuvir) was included as a positive control. Cells were plated into 96-well plates at a density of 8,000 cells per well. Compound was added to the cells for a period of 72 hours. Luminescent signal in the supernatant was detected using the Bright-Glo reagent, and used to calculate the antiviral activity of each compound. The CellTiter-Fluor reagent was used to assess cell viability. The EC50 (concentration at which 50% inhibition was observed) was calculated.

A further series has as its target T1, MRP2 transporter (Homo sapiens, UniProt Q92887).
T1 construct: expressed in transfected cells; host or cells: insect cells (transiently transfected); inside-out membrane vesicles
The series can be described thus: In vitro MRP2 transporter assay (inside-out membrane vesicles, [3H]-estradiol-17β-glucuronide). The format is in vitro ADME. Here is the method: To test the hypothesis that RG-101 was interfering with MRP2 transporter activity, an in vitro assay was performed per methods known in the art (see, for example, Vermeer et al., Drug Metab. Dispos., 2016, 44(3):453-9). In this assay, an efflux transporter-expressing vesicle is used to evaluate if a drug is a substrate or inhibitor of a transporter. Inside-out membrane vesicles are prepared from insect cells transiently transfected with a single efflux transporter, in this case MRP2. As the vesicles are in an inside-out orientation, the MRP2 transporter pumps radiolabeled substrate, [3H]-estradiol-17β-glucuronide, in an ATP-dependent manner, into the vesicles, and the accumulation of radiolabeled substrate inside the vesicle is measured. If a compound is an MRP2 transport inhibitor, the accumulation of radiolabeled substrate will be reduced relative to control samples. The inhibitory effect of the compound is evaluated by determining the IC50, the concentration resulting in 50% inhibition of transporter-mediated uptake of the radiolabeled substrate.
The in vitro MRP2 assay was performed for RG-101. Both RG-101, and RG1649, the unconjugated anti-miR of RG-101, were tested at concentrations of 0, 0.1, 0.3, 1, 3, 10, 30, and 100 uM. […] Thus, RG-101 inhibited the MPR2 transporter in this assay.
The MRP2 assay was performed for anti-miR-122 compounds selected based on potency in the HCV replicon assay and structural diversity.

Series [1] has as its system miR-122. The experiment in a line: In vivo potency: liver ALDOA mRNA derepression. The settings on record: single subcutaneous dose, liver after 7 days; for ALDOA derepression ED50 Expt #1: fold change in ALDOA mRNA relative to saline. As for the experimental part: Inhibition of miR-122 leads to an increase in ALDOA expression, thus ALDOA mRNA levels can be used to measure miR-122 inhibitory activity in vivo.
(§1) Only GalNAc-conjugated compounds were tested in this assay. Compounds were administered at molar equivalents with regard to the anti-miR portion of the compound. A single, subcutaneous dose of RG-101 was administered subcutaneously at doses ranging from 0.004 to 1.116 umol/kg. Other compounds were administered in a single subcutaneous dose at doses ranging from 0.006 to 1.942 umol/kg. After 7 days the study was terminated. Liver tissue was collected for measurement of ALDOA mRNA and drug levels. Kidney tissue was collected for measurement of drug levels. Blood was collected for measurement of cholesterol.
ALDOA mRNA levels were measured, by quantitative PCR, in RNA isolated from liver. The fold change in ALDOA mRNA, relative to saline, was used to calculate an ED50 (umol/kg) for each compound (“ND” indicates “not determined), as shown in Table 4.

The subject of the next series is cholesterol. The series can be described thus: In vivo potency: cholesterol reduction. The settings on record: single subcutaneous dose (doses in umol/kg), blood after 7 days. As for the experimental part:
as §1

Series [2] concerns miR-122. The experiment in a line: Onset of action: liver ALDOA mRNA de-repression. The settings on record: 0.014 to 1.117 umol/kg; liver 1, 3, 7 or 14 days after administration; relative to RG2634. It is filed as in vivo, mice. As for the experimental part:
To determine whether RG6650 and RG2634 could be distinguished by onset of action, groups of mice were treated with compound at doses ranging from 0.014 to 1.117 umol/kg. Liver tissue was collected from groups of 4 to 5 mice 1, 3, 7, or 14 days following administration. RNA was isolated and ALDOA mRNA was measured.

In a further series the test system is HCV genotype 1a. The series can be described thus: Human chimeric liver mouse model of HCV infection, serum HCV RNA. It is filed as in vivo, mice. The conditions noted are these: RG6650 60 mg/kg, single administration. The text has this:
Due to host-pathogen specificity, HCV can only infect humans and chimpanzees. As such, smaller species, such as mice, that are typically used for experimental in vivo studies cannot be infected with HCV for testing of candidate agents for the treatment of HCV infection. To address this problem, human liver chimeric mouse models may be utilized (see, e.g., Bissig et al., Proc Nat Acad Sci US A, 2007, 104:20507-20511; Bissig et al., J Clin Invest., 2010, 120: 924-930). In this model, the livers of immunodeficient mice are repopulated with human hepatocytes, resulting in a chimeric liver in which most of the hepatocytes are human hepatocytes. The mice are then infected with HCV and treated with anti-HCV agents. This mouse model is commercially available from, for example, PhoenixBio.
Anti-miR-122 compounds were tested in a human chimeric liver mouse model of HCV infection. The livers of immunodeficient mice were repopulated with human hepatocytes, resulting in a chimeric liver in which most of the hepatocytes are human hepatocytes. Six weeks following inoculation with HCV genotype 1a, a baseline viral titer was obtained for each animal included in the study.
Groups of four animals each were treated with PBS, RG-101 at a dose of 45 mg/kg, or RG6650 at a dose of 60 mg/kg. Blood was collected on Days 3, 7, 10, 14, 21, 28, 35, 42, and 49. The study was terminated on day 49.

The test system of series [3] is miR-122. The series can be described thus: Pharmacodynamic activity in liver after oral or s.c. administration (ALDOA). The format is in vivo, mice. The conditions noted are these: 30 mg/kg s.c. in PBS, single dose, four days later. Here is the method:
An experiment was performed to determine whether oral administration of RG6650 would results in pharmacodynamic modulation of miR-122 in liver. Also tested was RG7443, the unconjugated anti-miR of RG6650. While an unconjugated anti-miR-122 is not as effective as a GalNAc-conjugated for the inhibition of miR-122 in the treatment of HCV, it was included for comparison in the oral administration study.
(§2) Anti-miR compounds were delivered in PBS for subcutaneous administration. Orally administered anti-miR compounds were prepared in a solution of PBS and 0.3 M sodium bicarbonate (BC) was added to a pH of 9.5. For oral dosing, animals were fasted for 12 hours prior. For all treatment groups, mice were administered a single dose and sacrificed four days later. Liver tissue was collected for pharmacodynamic and pharmacokinetic analyses. RNA was isolated from liver and kidney. […] in the liver was measured.

In series [4] the test system is miR-122. The experiment in a line: Free uptake in primary human hepatocyte 3D spheroids, ALDOA by RT-PCR. It is filed as cell-based.
Another series deals with IFIT. The experiment in a line: In vivo safety: liver expression of interferon-inducible gene IFIT. Here is the method: The compounds that met the criteria for in vivo potency were also tested for safety. The capacity of a compound to trigger a pro-inflammatory response was assessed by measuring the expression of the interferon-inducible gene IFIT in the liver. Additionally, the level of ALT following administration of a compound was also measured.

A further series relates to HCV. The conditions noted are these: chronic treatment naïve HCV infected subjects; cited from earlier work.
A short description of series [5]: Anti-miR amounts in liver tissue after oral or s.c. administration. The format is in vivo, mice. The settings on record: single dose, four days later. Here is the method: as §2
The mark [6] stands for this setting: 72 hours, Expt #1, read-out: EC50 uM Expt #1.
[7] abbreviates: MRP2 transporter assay, Expt #2, read-out: IC50 uM Expt #2.

Read-outs that look alike come from different tables or passages of the source.

T1 sequence (Q92887 whole entry): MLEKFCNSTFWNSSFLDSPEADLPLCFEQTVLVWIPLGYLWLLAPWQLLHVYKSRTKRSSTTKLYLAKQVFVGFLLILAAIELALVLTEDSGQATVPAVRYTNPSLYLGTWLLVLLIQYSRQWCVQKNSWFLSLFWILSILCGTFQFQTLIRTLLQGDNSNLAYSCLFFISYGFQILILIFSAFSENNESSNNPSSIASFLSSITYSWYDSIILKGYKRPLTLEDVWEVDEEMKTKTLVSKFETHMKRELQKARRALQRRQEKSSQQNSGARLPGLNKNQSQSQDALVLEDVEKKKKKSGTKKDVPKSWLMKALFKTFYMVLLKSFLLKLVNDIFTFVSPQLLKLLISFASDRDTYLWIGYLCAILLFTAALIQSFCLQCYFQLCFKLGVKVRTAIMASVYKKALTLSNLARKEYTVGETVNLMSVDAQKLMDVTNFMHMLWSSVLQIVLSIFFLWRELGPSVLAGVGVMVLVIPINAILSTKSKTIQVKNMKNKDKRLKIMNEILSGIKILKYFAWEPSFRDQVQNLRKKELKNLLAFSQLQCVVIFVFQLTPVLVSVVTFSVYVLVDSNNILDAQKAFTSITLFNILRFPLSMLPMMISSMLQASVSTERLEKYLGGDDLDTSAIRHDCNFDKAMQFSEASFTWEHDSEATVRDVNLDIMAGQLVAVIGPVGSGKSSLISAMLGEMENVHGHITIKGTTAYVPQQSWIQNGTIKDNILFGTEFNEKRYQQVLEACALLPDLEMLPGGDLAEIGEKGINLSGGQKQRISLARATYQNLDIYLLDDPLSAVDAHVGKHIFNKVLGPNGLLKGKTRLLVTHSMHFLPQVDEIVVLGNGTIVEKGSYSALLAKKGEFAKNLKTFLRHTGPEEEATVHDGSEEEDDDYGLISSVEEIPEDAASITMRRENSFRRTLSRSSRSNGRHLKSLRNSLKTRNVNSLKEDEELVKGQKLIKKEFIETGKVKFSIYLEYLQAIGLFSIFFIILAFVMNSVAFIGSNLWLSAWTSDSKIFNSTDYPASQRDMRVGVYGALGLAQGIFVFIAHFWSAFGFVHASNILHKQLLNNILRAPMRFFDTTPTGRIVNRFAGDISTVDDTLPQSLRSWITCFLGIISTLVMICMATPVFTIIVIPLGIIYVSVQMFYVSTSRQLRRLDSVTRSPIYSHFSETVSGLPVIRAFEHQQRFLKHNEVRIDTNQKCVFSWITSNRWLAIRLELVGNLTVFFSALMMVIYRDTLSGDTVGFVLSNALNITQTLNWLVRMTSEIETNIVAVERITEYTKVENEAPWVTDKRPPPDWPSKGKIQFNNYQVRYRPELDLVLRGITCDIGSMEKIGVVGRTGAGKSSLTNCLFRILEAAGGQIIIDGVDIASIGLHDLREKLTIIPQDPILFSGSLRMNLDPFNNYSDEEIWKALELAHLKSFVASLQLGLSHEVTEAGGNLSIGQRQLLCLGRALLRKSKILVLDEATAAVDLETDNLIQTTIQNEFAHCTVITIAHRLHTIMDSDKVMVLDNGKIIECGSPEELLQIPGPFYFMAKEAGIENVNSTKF

In the case of `CC(C)OC(=O)[C@H](C)N[P@](=O)(OC[C@H]1O[C@@H](n2ccc(=O)[nH]c2=O)[C@](C)(F)[C@@H]1O)Oc1ccccc1` [GS-7977, sofosbuvir, reference compound], the EC50 was 0.149 µM with HCV GT1b replicon (Hepatitis C virus, GT1B, Huh-7, 72 hours, Expt #1, read-out: EC50 uM Expt #1) and 0.098 µM with HCV GT1b replicon (Hepatitis C virus, GT1B, Huh-7, 72 hours, Expt #2, read-out: EC50 uM Expt #2).
Regarding USCSACSACSTCSCS [RG6650], the IC50 on MRP2 transporter (MRP2 transporter assay, Expt #1, read-out: IC50 uM Expt #1) was over 100 µM; on MRP2 transporter (assay conducted multiple times, read-out: MRP2 IC50 range over multiple studies) it was over 100 µM. The EC50 is 11.3 µM in the series with HCV GT1b replicon (72 hours, Expt #2, read-out: EC50 uM Expt #2) and 0.00207 µM with miR-122 [4] (3D PHH spheroids, three days treatment, read-out: EC50 (ALDOA levels)). For the same molecule, the “ALDOA derepression ED50 Expt #2” value in the series on miR-122 [1] (Expt #2) is 0.091 µmol/kg. The “Cholesterol reduction ED50 Expt #2” value in the series with cholesterol (Expt #2) is 0.025. Moreover, the “Onset of action by ALDOA mRNA de-repression” value in the series on miR-122 [2] is “increased de-repression of ALDOA mRNA at a lower dose and earlier time point”. Further, in the series on HCV genotype 1a, the “Reduction in serum HCV RNA” value is “greater than 2 log”. Also, in the series on HCV genotype 1a (RG-101 45 mg/kg, up to day 49, FIG. 1), the “Viral titer, serum HCV RNA” value is listed as “significant reductions in viral titer”. Besides, the “Liver PD Sig” value in the series on miR-122 [3] is 1.704. Moreover, in the series with miR-122 [4] (RG6650 compared to RG7443), the “Decrease of EC50 by the GalNAc conjugate” value is about 1000 fold.
Take USCSAS^POCS^POAS^POCS^POUSCSCS [RG6372]: the EC50 with HCV GT1b replicon (setting [6]) is over 100 µM. Also, in the series with miR-122 [1], the “ALDOA derepression ED50 Expt #1” value turned out to be 0.028 µmol/kg. In addition, in the series on cholesterol, the “Cholesterol reduction ED50 Expt #1” value was found to be 0.8088.
In the case of CSASCS^POAS^POCS^POUS^POCSCSAS [RG6371], in the series with HCV GT1b replicon (setting [6]), the EC50 was determined as 34.1 µM. For the same molecule, in the series on miR-122 [1], the “ALDOA derepression ED50 Expt #1” value is 0.086 µmol/kg. Also, the “Cholesterol reduction ED50 Expt #1” value in the series on cholesterol was determined as 1.116.
Take CsASCSASCSUSCSCSAS [RG6370]: the IC50 at MRP2 transporter (setting [7]) is over 100 µM. Also, in the series with HCV GT1b replicon (setting [6]), the EC50 is 60.9 µM. The “ALDOA derepression ED50 Expt #1” value with miR-122 [1] is 6.51 µmol/kg. In addition, the “Cholesterol reduction ED50 Expt #1” value in the series on cholesterol amounted to 0.0007. For the same molecule, in the series with IFIT, the “Expression of IFIT in the liver (pro-inflammatory response)” value is “increased the expression of IFIT”.
As for miravirsen, the “Serum HCV RNA” value in the series with HCV was “reduction in serum HCV RNA”.
Consider USCSASCSASCSUSCSCS [RG3054], for which the IC50 on MRP2 transporter (setting [7]) is over 100 µM. In the series on HCV GT1b replicon (setting [6]), the EC50 is over 100 µM. Moreover, the “Cholesterol reduction ED50 Expt #1” value with cholesterol is “.08152”. The “Expression of IFIT in the liver (pro-inflammatory response)” value with IFIT is “increased the expression of IFIT”.
Regarding UsCsACsACsTCsCs [RG7443], in the series on miR-122 [3], the “Liver PD Sig” value was found to be 1.945. Also, the “Liver Mean (anti-miR amount)” value in [5] (30 mg/kg s.c. in PBS) is 1.48 µg/g; in series [5] (100 mg/kg p.o. in BC), under 0.4 µg/g.
Regarding CSASCSASCSUSCSCSAS [RG6234], the IC50 on MRP2 transporter (setting [7]) was over 100 µM. Besides, the EC50 with HCV GT1b replicon (setting [6]) turned out to be 17.4 µM.
For CSASCSASCSUSCSCS [RG497998], in the series on HCV GT1b replicon (setting [6]), the EC50 is 7.71 µM.
Regarding CSASCSASCSUSCSCS [RG2634], the IC50 at MRP2 transporter (setting [7]) is over 100 µM. Also, the EC50 with HCV GT1b replicon (setting [6]) is 22.5 µM. In the series with miR-122 [1], the “ALDOA derepression ED50 Expt #1” value amounted to 0.029 µmol/kg. Further, the “Cholesterol reduction ED50 Expt #1” value in the series with cholesterol came out at 0.011.
